Values of other authors in patent US6645930B1, “Clean room wipes for neutralizing caustic chemicals” (EKC Technology, Inc., priority 2000, dated 2003).

Key:
[1] = for pKa3: third ionization constant; for pKa1: first ionization constant
[2] = at 25° C.

Structure (SMILES)	pKa3 [1]	pKa1 [1]	pKa2 ([1]; second ionization constant)	vapor pressure [2]
O=C(O)CC(O)(CC(=O)O)C(=O)O [Citric, citric acid]	6.9	–	–	–
O=C(O)c1cc(O)c(O)c(O)c1 [Gallic, gallic acid]	8.9	4.2	–	–
O=C(O)[C@H](O)[C@@H](O)[C@H](O)[C@H](O)CO [Gluconic, gluconic acid]	–	3.5	4.7	–
CC(O)CO (stereo not drawn) [propylene glycol]	–	–	–	0.02 kPascal
